The record followed here is patent US20240360148A1 (SUVALENT THERAPEUTICS, INC., priority 2021, published 2024).

Data set [1] can be described thus: Plasma protein binding, equilibrium dialysis, rat plasma. Format: in vitro ADME. The note with it: 5 hours at 37° C., read-out: PPB % bound Rat (converted). The protocol: (§1) The compounds of interest were evaluated for various PK parameters. Specifically CACO permeability/efflux and plasma protein binding (PPP) were determined. Stock solutions were prepared at 10 mM in DMSO for test and reference compounds. Aliquots of the stock solution were diluted to 500× of final concentration (0.5 mM) with DMSO, then further diluted upon the addition of bank PE3-buffer to 20× of final concentration (20 μM). Then test and reference compounds were prepared in plasma at 1 μM. For 0 hour incubation: 25 μL of the plasma spiked with test and reference compounds was transferred into a 96-well sample preparation plate, and then 25 μL blank PB-buffer was added. The samples were quenched by 200 μL of IS solution to prepare [Initial]0h samples. For 5 hours incubation: 100 μL of the plasma spiking with test and reference compounds was loaded on donor side, and 100 μL of blank PB-buffer were loaded on receiver side of the equilibrium dialysis device. Samples were incubated in an air-bath shaker (60 rpm) for 5 hours at 37° C. After 5 hours incubation, 25 μL of samples (from both the donor sides and receiver sides of the dialysis apparatus) was aspirated and added into new sample preparation plates, separately. 25 μL of blank PB-buffer was added to donor side samples and 25 μL of blank plasma was added to receiver side samples to balance the matrix. The samples were quenched with 200 μL of IS solution. The assay plate was shaken at the vibrator (Hangzhou Allsheng, MX100-4A) for 10 min (600 rpm) and then centrifuged at 5,594×g for 15 min (Thermo Multifuge×3R). An aliquot of the 50 μL supernatant was taken from each well and diluted by 50 μL distilled water, then analyzed by UPLC-MS/MS.

The nature of data set [2]: Plasma protein binding, equilibrium dialysis, dog plasma. Format: in vitro ADME. To be noted: 5 hours at 37° C., read-out: PPB % bound Dog (converted). The protocol:
as §1

In a further data set the target is SAE1 (Homo sapiens (Human), UniProt Q9UBE0+Q9UBT2). The experiment in a line: SAE High Throughput Biochemical Assay (HTRF), 15 min preincubation. The note with it: read-out: 15 min preincubation HTRF IC50 (μM) Ave, SAE1 12.5 nM, ATP 100 μM. The gist of the method: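 HTRF detection of SUMO transfer from SUMO-GST to UBC9-His (40 nM each) by SAE1 at 12.5 nM used 100 μM ATP in pH 7.5 HEPES buffer with 10 mM MgCl2 and 0.1% BSA. Enzyme and compound were preincubated 15 min at RT and the reaction ran 45 min, with readings after 2 h and overnight.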

Data set [3] in a line: Plasma protein binding, equilibrium dialysis, human plasma. Type of data set: in vitro ADME. To be noted: 5 hours at 37° C., read-out: PPB % bound Human (converted). The protocol:
as §1

Sequence of SAE1 (Q9UBE0 whole entry): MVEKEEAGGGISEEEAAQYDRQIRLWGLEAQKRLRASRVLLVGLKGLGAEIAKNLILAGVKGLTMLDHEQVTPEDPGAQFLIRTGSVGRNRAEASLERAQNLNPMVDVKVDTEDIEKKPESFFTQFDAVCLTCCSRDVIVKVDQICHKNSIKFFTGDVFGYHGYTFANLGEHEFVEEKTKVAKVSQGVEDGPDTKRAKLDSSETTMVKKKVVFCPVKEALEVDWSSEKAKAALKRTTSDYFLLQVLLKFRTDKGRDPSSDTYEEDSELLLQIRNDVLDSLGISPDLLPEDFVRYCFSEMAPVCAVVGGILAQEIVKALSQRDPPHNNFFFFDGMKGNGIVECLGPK
Sequence of SAE1 (Q9UBT2 whole entry): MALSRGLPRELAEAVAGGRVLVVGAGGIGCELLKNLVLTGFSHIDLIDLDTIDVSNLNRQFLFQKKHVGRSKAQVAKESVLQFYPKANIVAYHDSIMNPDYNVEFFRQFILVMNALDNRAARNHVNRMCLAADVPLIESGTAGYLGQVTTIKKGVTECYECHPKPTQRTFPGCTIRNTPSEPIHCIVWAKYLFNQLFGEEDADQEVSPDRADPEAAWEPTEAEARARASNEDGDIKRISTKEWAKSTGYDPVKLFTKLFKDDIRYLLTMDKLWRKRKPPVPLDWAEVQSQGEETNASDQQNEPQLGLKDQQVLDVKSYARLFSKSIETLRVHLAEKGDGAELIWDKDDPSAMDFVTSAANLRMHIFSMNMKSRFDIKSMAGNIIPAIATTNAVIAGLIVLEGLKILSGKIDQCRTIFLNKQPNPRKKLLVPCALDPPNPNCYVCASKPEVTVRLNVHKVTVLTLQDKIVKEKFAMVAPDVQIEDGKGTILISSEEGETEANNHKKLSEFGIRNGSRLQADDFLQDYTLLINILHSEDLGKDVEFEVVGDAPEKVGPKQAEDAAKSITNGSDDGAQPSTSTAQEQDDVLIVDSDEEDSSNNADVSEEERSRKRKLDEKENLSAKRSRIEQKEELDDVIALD

With `C=CC(=O)N1Cc2sc(C#N)c(C)c2[C@H](c2cccc(F)c2-c2cn(CC)nc2C(F)(F)F)C1` [Compound 222], the fraction unbound at 5 h, 1 μM in data set [1] is 0.004; in data set [2], 0.001; in data set [3], 0.008. Moreover, the half-maximal inhibitory concentration (IC50) at SAE1 was 0.1 µM.

In the case of `CCn1cc(-c2c(F)cccc2[C@@H]2CN(C(=O)/C=C/CN(C)C)Cc3sc(C#N)c(C)c32)c(C(F)(F)F)n1` [Example 46, (S, E)-6-(4-(dimethylamino)but-2-enoyl)-4-(2-(1-ethyl-3-(trifluoromethyl)-1 H-pyrazol-4-yl)-3-fluorophenyl)-3-methyl-4,5,6,7-tetrahydrothieno[2,3-c]pyridine-2-carbonitrile], the results for the fraction unbound at 5 h, 1 μM in data set [1], in data set [2] and in data set [3] were 0.021, 0.008 and 0.028, respectively. Also, on SAE1, the IC50 is 0.2 µM.

As to `CCn1cc(-c2c(F)cccc2[C@@H]2CN(C(=O)/C=C/CNC)Cc3sc(C#N)cc32)c(C(F)(F)F)n1` [Example 50], the fraction unbound at 5 h, 1 μM in data set [1] was 0.062; in data set [2], 0.02; in data set [3], 0.033. Further, on SAE1, the IC50 is 0.51 µM.
